In ChEMBL document CHEMBL4033705, “Screening for bioactive natural products from a 67-compound library of Glycyrrhiza inflata” (Bioorg Med Chem, 2017) one finds inhibition, inhibition of growth and IC50 data, which are given here for 19 compounds.

Data set [1] can be described thus: Growth inhibition of human HEK293T cells at 10 uM after 24 hrs by MTS assay relative to control. The class given is cell-based, HEK-293T. The settings on record: HEK293T cells, read-out: GI.
Data set [2] can be described thus: Growth inhibition of human LO2 cells at 10 uM after 24 hrs by MTS assay relative to control. The class given is cell-based, L02. The note with it: LO2 cells, read-out: GI.
The test system of data set [3] is MCF7. Nature of the data set: Growth inhibition of human MCF7 cells at 10 uM after 24 hrs by MTS assay relative to control. The settings on record: MCF7, 24 h, read-out: GI. It counts as functional.
In data set [4] the test system is SW480. As to the kind of experiment: Growth inhibition of human SW480 cells at 10 uM after 24 hrs by MTS assay relative to control. The note with it: SW480, 24 h, read-out: GI. The class given is functional.
The subject of another data set is HepG2. Nature of the data set: Growth inhibition of human HepG2 cells at 10 uM after 24 hrs by MTS assay relative to control. The class given is functional. The note with it: HepG2, 24 h, read-out: GI.
For another data set, the system named is RAW264.7. As to the kind of experiment: Antiinflammatory activity in mouse RAW264.7 cells assessed as inhibition of LPS-induced NO production at 10 uM after 24 hrs by Griess reagent based assay relative to control. The class given is functional. The settings on record: RAW264.7, 24 h.
The species named for another data set is Homo sapiens. As to the kind of experiment: Inhibition of LPS-induced NF-kappaB transcription (unknown origin) expressed in human SW480 cells at 10 uM by luciferase reporter gene assay. It counts as cell-based.
In data set [5] the target is T1, Tyrosine-protein phosphatase non-receptor type 1 (Homo sapiens) (UniProt P18031).
T1 sequence (whole entry): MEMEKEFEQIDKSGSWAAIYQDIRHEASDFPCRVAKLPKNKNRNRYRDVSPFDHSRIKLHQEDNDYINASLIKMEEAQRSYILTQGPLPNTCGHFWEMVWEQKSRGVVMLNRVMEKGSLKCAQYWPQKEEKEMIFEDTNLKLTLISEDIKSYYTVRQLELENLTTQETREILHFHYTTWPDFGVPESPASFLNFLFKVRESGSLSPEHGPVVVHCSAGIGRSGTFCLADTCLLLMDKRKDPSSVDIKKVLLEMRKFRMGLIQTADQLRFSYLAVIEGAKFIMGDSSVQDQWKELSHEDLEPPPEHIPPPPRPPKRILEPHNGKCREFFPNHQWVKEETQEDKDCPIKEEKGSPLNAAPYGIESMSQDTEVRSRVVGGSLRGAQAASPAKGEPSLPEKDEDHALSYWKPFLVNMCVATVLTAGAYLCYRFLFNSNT
As to the kind of experiment: Inhibition of recombinant human PTP1B using p-nitrophenyl phosphate as substrate at 10 uM after 30 mins relative to control.

In data set [6] the target is Mushroom tyrosinase (Agaricus bisporus) (UniProt O42713+Q00024+C7FF04+C7FF05). Nature of the data set: Inhibition of mushroom tyrosinase at 10 uM using L-tyrosine as substrate incubated for 15 mins followed by substrate addition relative to control.
For data set [7], the system named is MCF7. Nature of the data set: Cytotoxicity against human MCF7 cells assessed as reduction in cell viability after 24 hrs by MTS assay. It counts as functional, cell-based. The settings on record: MCF7, 24 h.
Data set [8] relates to SW480. Nature of the data set: Cytotoxicity against human SW480 cells assessed as reduction in cell viability after 24 hrs by MTS assay. The class given is functional, cell-based. The settings on record: SW480, 24 h.

SMILES strings stand for the structures.

Turning to `CC1(C)C=Cc2c(cc3occ(-c4ccc(O)cc4)c(=O)c3c2O)O1` [ALPINUMISOFLAVONE], the inhibition at 24 h, 10 µM worked out at 15% in data set [1] and 5% in [2]. The values for the inhibition of growth at 10 µM in the data set with MCF7 [3], with SW480 [4] and in the data set on HepG2 were 3%, 13% and 40%, respectively. Also, in the data set with RAW264.7, the inhibition at 10 µM stood at 19%. Moreover, the results for the inhibition (in the data set filed under Homo sapiens; in data set [5]; in [6]) were 41%, 79% and 2%, respectively.

As for `CC(C)=CCc1cc([C@@H]2CC(=O)c3ccc(O)cc3O2)cc2c1OC(C)(C)C=C2` [ABYSSINONES III], the inhibition of growth at 10 µM amounted to 0% in the data set on MCF7 [3], 26% in the data set on SW480 [4] and 9% in the data set on HepG2. In the data set with RAW264.7, the inhibition at 10 µM is 17%. Besides, the inhibition in the data set filed under Homo sapiens was found to be 28%; in data set [5], 43%; in [6], 6%.

For `O=C1C[C@@H](c2ccc(O)cc2)Oc2cc(O)cc(O)c21` [NARINGENIN], the inhibition of growth at 10 µM came out at 21% in the data set with MCF7 [3], 28% in the data set on SW480 [4] and 28% in the data set on HepG2. In addition, the inhibition at 10 µM with RAW264.7 came to 6%. For the same compound, the results for the inhibition (in the data set listed under Homo sapiens; in data set [5]; in data set [6]) were 22%, 43% and 10%, respectively.

`CC(C)=CCc1c(O)ccc(C(=O)/C=C/c2ccc(O)cc2)c1O` [ISOBAVACHALCONE]: the inhibition of growth at 10 µM is 16% in the data set with MCF7 [3], 20% in the data set with SW480 [4] and 39% in the data set with HepG2. Moreover, the inhibition at 10 µM with RAW264.7 is 0%. In addition, the inhibition worked out at 0% in the data set listed under Homo sapiens, 73% in [5] and 14% in data set [6].

Turning to `CC(C)=CCc1c(O)ccc(-c2cc3ccc(O)cc3o2)c1O` [2'-O-DEMETHYLBIDWILLOL B], the inhibition of growth at 10 µM with MCF7 [3] amounted to 16%; in the data set with SW480 [4], 36%; in the data set with HepG2 it was 8%. In addition, the inhibition at 10 µM with RAW264.7 came to 32%. For the same compound, the values for the inhibition (in the data set listed under Homo sapiens; in [5]; in data set [6]) were 42%, 24% and 12%, respectively.

`CC(C)=CCc1c(O)ccc2c1O[C@H](c1ccc3c(c1)C=CC(C)(C)O3)CC2=O`: the inhibition at 24 h, 10 µM in [1] worked out at 25%; in data set [2] it was 2%. Further, the IC50 in the data set with MCF7 [7] is 12.9 µM; with SW480 [8], 9.84 µM. Also, the figures for the inhibition of growth at 10 µM in the data set on MCF7 [3], in the data set with SW480 [4] and in the data set with HepG2 were 75%, 72% and 14%, respectively. In the data set with RAW264.7, the inhibition at 10 µM came out at 24%. Further, the inhibition in the data set listed under Homo sapiens is 20%; in data set [5], 50%; in data set [6], 15%.

Consider `CC(C)=CCc1cc2c(=O)cc(-c3ccc4c(c3)C=CC(C)(C)O4)oc2cc1O`, for which the results for the inhibition of growth at 10 µM in the data set with MCF7 [3], in the data set on SW480 [4] and in the data set on HepG2 were 7%, 51% and 11%, respectively. In addition, the inhibition at 10 µM in the data set on RAW264.7 is 1%. Moreover, the figures for the inhibition (in the data set filed under Homo sapiens; in data set [5]; in [6]) were 3%, 33% and 9%, respectively.

For the compound `COc1ccc(-c2coc3cc(O)ccc3c2=O)c(O)c1` [XENOGNOSIN B], the results for the inhibition of growth at 10 µM in the data set on MCF7 [3], in the data set on SW480 [4] and with HepG2 were 1%, 13% and 0%, respectively. The inhibition at 10 µM with RAW264.7 turned out to be 1%. The inhibition in the data set filed under Homo sapiens is 4%; in [5] it was 47%; in [6] it was 11%.

For `CC1(C)[C@@H](OC=O)CC[C@]2(C)[C@H]3C(=O)C=C4[C@@H]5C[C@@](C)(C(=O)O)CC[C@]5(C)CC[C@@]4(C)[C@]3(C)CC[C@@H]12`, the inhibition of growth at 10 µM stood at 17% in the data set with MCF7 [3], 3% in the data set with SW480 [4] and 13% in the data set with HepG2. For the same compound, the inhibition at 10 µM with RAW264.7 came out at 2%. Moreover, the inhibition was 0% in the data set filed under Homo sapiens, 3% in data set [5] and 0% in data set [6].

Take `CC(C)=CCc1c(O)c(CC=C(C)C)c2oc(-c3ccc(O)cc3)cc(=O)c2c1O`: the inhibition at 24 h, 10 µM is 20% in data set [1] and 46% in data set [2]. Besides, the IC50 in the data set with MCF7 [7] came to 12.2 µM. Also, the inhibition of growth at 10 µM amounted to 68% in the data set with MCF7 [3], 61% in the data set on SW480 [4] and 11% in the data set with HepG2. In addition, in the data set on RAW264.7, the inhibition at 10 µM was determined as 9%. The values for the inhibition (in the data set filed under Homo sapiens; in data set [5]; in data set [6]) were 34%, 47% and 0%, respectively.

As to `CC(C)=CCc1c(O)ccc(C(=O)/C=C/c2ccc(O)c(O)c2)c1O`, the inhibition of growth at 10 µM was 12% in the data set on MCF7 [3], 11% in the data set with SW480 [4] and 1% with HepG2. Besides, the inhibition at 10 µM in the data set on RAW264.7 is 11%. For the same compound, the inhibition in the data set listed under Homo sapiens was determined as 14%; in [5], 16%; in data set [6], 14%.

As for `COc1ccc2c(c1)OC[C@H]1c3ccc(O)cc3O[C@@H]21`, the inhibition of growth at 10 µM is 20% with MCF7 [3], 17% with SW480 [4] and 5% in the data set on HepG2. The inhibition at 10 µM with RAW264.7 was 3%. The inhibition in the data set filed under Homo sapiens worked out at 0%; in data set [5], 2%; in [6] it was 31%.

Take `O=C(/C=C/c1ccc(O)cc1)c1ccc(O)cc1O` [ISOLIQUIRITIGENIN]: the inhibition of growth at 10 µM in the data set on MCF7 [3] was found to be 0%; with SW480 [4], 16%; in the data set with HepG2, 0%. The inhibition at 10 µM in the data set with RAW264.7 is 14%. Besides, the inhibition in the data set filed under Homo sapiens was 6%; in data set [5], 48%; in [6], 12%.

In the case of `CC(C)=CCc1cc2c(=O)cc(-c3ccc(O)cc3)oc2cc1O` [LICOFLAVANONE A], the inhibition of growth at 10 µM in the data set on MCF7 [3] was 0%; in the data set with SW480 [4] it was 30%; with HepG2 it was 5%. Moreover, the inhibition at 10 µM in the data set on RAW264.7 amounted to 11%. The inhibition amounted to 7% in the data set listed under Homo sapiens, 79% in data set [5] and 17% in data set [6].

As for `CC1(C)C(=O)CC[C@]2(C)[C@H]3C(=O)C=C4[C@@H]5C[C@@](C)(C(=O)O)CC[C@]5(C)CC[C@@]4(C)[C@]3(C)[C@@H](O)C[C@@H]12`, the inhibition of growth at 10 µM stood at 25% in the data set with MCF7 [3], 48% with SW480 [4] and 1% in the data set with HepG2. Further, in the data set on RAW264.7, the inhibition at 10 µM came to 6%. Besides, the inhibition in the data set listed under Homo sapiens stood at 28%; in [5], 1%; in data set [6], 5%.

`O=C1C[C@@H](c2ccc(O)cc2)Oc2cc(O)ccc21` [LIQUIRTIGENIN]: the inhibition of growth at 10 µM in the data set with MCF7 [3] came out at 27%; in the data set with SW480 [4], 9%; in the data set on HepG2 it was 13%. Also, in the data set with RAW264.7, the inhibition at 10 µM stood at 0%. Also, the inhibition in the data set filed under Homo sapiens was 19%; in [5], 36%; in data set [6] it was 2%.

With `CC1(C)C=Cc2cc(-c3coc4cc(O)ccc4c3=O)cc(O)c2O1`, the inhibition of growth at 10 µM is 0% in the data set on MCF7 [3], 5% with SW480 [4] and 14% in the data set on HepG2. Also, in the data set with RAW264.7, the inhibition at 10 µM amounted to 22%. Further, the inhibition in the data set filed under Homo sapiens amounted to 23%; in data set [5], 0%; in data set [6], 0%.

On to `CC(C)=CCc1c(O)cc(O)c2c(=O)c(-c3ccc(O)cc3O)coc12`, for which the results for the inhibition of growth at 10 µM in the data set on MCF7 [3], with SW480 [4] and in the data set on HepG2 were 31%, 13% and 5%, respectively. In addition, the inhibition at 10 µM in the data set with RAW264.7 came to 9%. In addition, the inhibition in the data set filed under Homo sapiens is 8%; in [5], 34%; in data set [6], 17%.

`COc1cc(O)c(-c2coc3cc(O)ccc3c2=O)c(OC)c1CC=C(C)C`: the inhibition of growth at 10 µM in the data set with MCF7 [3] is 33%; in the data set on SW480 [4], 0%; with HepG2, 0%. In the data set with RAW264.7, the inhibition at 10 µM came to 14%. Moreover, the values for the inhibition (in the data set filed under Homo sapiens; in data set [5]; in data set [6]) were 3%, 18% and 15%, respectively.
